Results published in article PMC3265293, “Artificial 64-Residue HIV-1 Enhancer-Binding Peptide Is a Potent Inhibitor of Viral Replication in HIV-1-Infected Cells” (Advances in Virology, 2011).
Where no end group is shown, it is not given here.

What was measured:
[1] = test system: plasma membrane; parameters: method as in earlier work; details: ref earlier work; cited from earlier work
[2] = test system: CEM-GFP cells; test: MTT assay of PMA-stimulated CEM-GFP cells; assay type: cell-based, human; details: PMA and increasing concentrations of peptide, after 48 h
Procedure: After 48 h, cell growth-inhibitory effects of the peptides and PMA were assessed using the 3-[4,5-dimethylthiazol-2-yl]-2,5-diphenyltetrazolium bromide (MTT) assay.

GKTKRPRFGKTKRPRVGQQSIEQLENGKTKRPRFGKTKRPRY [R42]
ability to pass the plasma membrane [1]: not able to pass the plasma membrane | cytotoxicity (MTT assay) [2]: not observed
